Entries after “also recorded” stand apart in the source; their conditions may differ. Read-outs that look alike come from different tables or passages of the source.
Assays:
[1] = tested on: lipopolysaccharide-induced inflammatory reactions; details: cited from earlier work
[2] = tested on: mice challenged with endotoxin (LPS O111:B4) or live Escherichia coli; details: cited from earlier work; for concentration of IL-1α: controls 1187.0±278.64
[3] = tested on: Tissue Factor; test: TNF-alpha induced Tissue Factor expression in HUVEC, flow cytometry; assay type: cell-based, human; details: TNF-alpha stimulation 48 hours
Procedure: In the experiments below, human umbilical vein endothelial cells (HUVEC) where purchased from AllCells and grown in Opti-MEM media with complete fetal calf serum. Cells were stimulated with the indicated concentrations of TNF-alpha for 48 hours and incubated with the indicated concentrations of individual components of QuadraMune™ as well as the combination. Quantification of Tissue Factor was performedby flow cytometry and expressed as mean fluorescent intensity (MFI).

[4] = tested on: C57BL6 mice; details: 10 mg/kg intraperitoneally, 72 h after CL2P; cited from earlier work
[5] = tested on: mice with experimental colitis; details: 50 and 100 mg/kg/day; cited from earlier work
[6] = tested on: nuclear factor-κB (NF-κB); details: macrophage foam cells; cited from earlier work
[7] = tested on: mice; details: cited from earlier work
[8] = tested on: mice with LPS-induced ARDS; details: 10 mg/kg ip; cited from earlier work
[9] = tested on: lipopolysaccharide-activated macrophages; details: cited from earlier work
[10] = tested on: rats subjected to myocardial ischemia and reperfusion; details: 10 mg/kg intravenously then 10 mg/kg/h infusion; cited from earlier work
[11] = tested on: male Sprague-Dawley rats; details: 10 mg/kg intraperitoneally at 1 and 6 h after CL2P and every 12 h; cited from earlier work
[12] = tested on: Nrf2 (+/+) primary peritoneal macrophages; details: cited from earlier work
[13] = tested on: LPS-challenged macrophages; details: pre-incubated 6 h (0 to 50 μM), LPS 24 h; cited from earlier work
[14] = tested on: BALB/c mice with LPS-induced ARDS; details: cited from earlier work
[15] = animal studies; cited from earlier work
[16] = tested on: lectin-like oxLDL receptor-1 (LOX-1); details: in vitro and in vivo; cited from earlier work
[17] = tested on: interleukin-1, interleukin-6, interleukin-8, TNF-alpha; details: cited from earlier work
[18] = tested on: apoE(−/−) mice; details: injection; cited from earlier work
[19] = tested on: human umbilical vein VECs (HUVECs); details: oxLDL 200 μg/ml; cited from earlier work
[20] = tested on: NK cell; test: Nanostilbene in cancer patients: NK cell activity and interferon gamma production; assay type: in vivo, human; details: pterostilbene administered in the form of nanostilbene in cancer patients
[21] = 50 mg/kg, LPS 5 mg/kg 3 days later

In the case of CC1=CC(=O)C(C(C)C)=CC1=O [thymoquinone], the lipopolysaccharide-induced inflammatory reactions [1] is given as “suppressed effectively the lipopolysaccharide-induced inflammatory reactions”, the “concentration of nitric oxide” value ([1]; marker of inflammation) is given as “reduced significantly the concentration of nitric oxide” and the “concentration of IL-1α” value ([2]; 0.75 mg/kg dose) is given as 310.8 ± 70.93 pg/mL. For the same molecule, the IL-10 levels ([2]; 0.75 mg/kg, controls 5505.2±333.96) was 2885.0 ± 553.98 pg/mL, the “concentration of IL-1α” value ([2]; 1 mg/kg group) was 428.3 ± 71.32 pg/mL and the “levels of TNF-α and IL-2” value ([2]; P values=0.1817 and 0.0851) was “relatively lower levels of TNF-α and IL-2”. For the same molecule, the reduction of mortality ([2]; mice, sepsis) was 80-90%, the “renal and hepatic biomarker profiles” value ([2]; mice, sepsis) was “improved both renal and hepatic biomarker profiles” and the “TNF-alpha induced Tissue Factor expression (mean fluorescent intensity)” value [3] was “reduction of TNF-alpha induced Tissue Factor expression”. For the same molecule, the “TNF-alpha induced Tissue Factor expression (mean fluorescent intensity)” value ([3]; listed as Thymoquinone) was “reduces inflammation induced tissue factor expression”.
In the case of epigallocatechin-3-gallate [EGCG], the survival [4] is given as “significantly improved”, the “plasma levels of IL-10 and TGF-β1” value [5] is given as “increasing the plasma levels of IL-10 and TGF-β1” and the “release of IL-6 and IL-17” value [5] is given as “reduce the release of IL-6 and IL-17”. The “TNF-α-induced NF-κB activity” value [6] was “inhibition of the TNF-α-induced nuclear factor-κB (NF-κB) activity”, the “rescue from lethal sepsis” value ([7]; first dose 24 hours after cecal ligation and puncture) was “rescued mice from lethal sepsis” and the “protection against lethal endotoxemia” value ([7]; intraperitoneal administration) was “protected mice against lethal endotoxemia”. The “expression of TNF-α, IL-1β and IL-6 in lung, serum and bronchoalveolar lavage fluid” value [8] was “significantly decreased”, the “activation of nuclear factor-kappaB” value ([9]; electrophoretic mobility shift assay) was “blocked the activation of nuclear factor-kappaB” and the “nitric oxide (NO) generation” value ([9]; marker of activated macrophages) was “inhibit nitric oxide (NO) generation”. For the same molecule, the “myocardial damage and myeloperoxidase activity” value [10] was “reduced myocardial damage and myeloperoxidase activity”, the “plasma IL-6 and creatine phosphokinase levels” value [10] was “decreased” and the “hypotension (mean arterial blood pressure)” value [11] was “significantly improved”. The “TNF-alpha induced Tissue Factor expression (mean fluorescent intensity)” value [3] was “reduces inflammation induced tissue factor expression; also recorded: reduction of TNF-alpha induced Tissue Factor expression”.
For C[S+]([O-])CCCCN=C=S (stereo not drawn) [sulforaphane, 1-isothiocyanato-4-(methylsulfinyl)-butane], the HO-1 expression ([12]; LPS-stimulated Nrf2 (+/+) macrophages) is listed as “significantly augmented”, the “LPS-stimulated mRNA expression, protein expression and production of TNF-alpha, IL-1beta, COX-2 and iNOS” value ([12]; pretreatment, Nrf2 (+/+) macrophages) is listed as “potently inhibited” and the “expression of NO and cytokines” value [13] is listed as “able to prevent the expression of NO and cytokines”. For the same molecule, the “TNF-alpha induced Tissue Factor expression (mean fluorescent intensity)” value [3] was “reduction of TNF-alpha induced Tissue Factor expression”, the “TNF-alpha induced Tissue Factor expression (mean fluorescent intensity)” value ([3]; listed as Sulforaphane) was “reduces inflammation induced tissue factor expression” and the “serum levels of IL-6 and TNF-α, nuclear factor-κB protein expression” value ([14]; 50 mg/kg, ELISA) was “significantly decreased”. For the same molecule, the “lactate dehydrogenase (LDH) activity” value [14, 21] was “significantly decreased”, the “wet-to-dry ratio of the lungs” value [14, 21] was “significantly decreased” and the “PGE2 production, COX-2 and MMP-9 protein expression, iNOS activity” value ([14]; 50 mg/kg) was “significantly inhibited”. The “Nrf2/antioxidant response element (ARE) pathway” value ([14]; pre-treatment) was “activated”.
For “trans-3,5-dimethoxy-4-hydroxystilbene [pterostilbene]”, the bioavailability [15] is given as 80%, the LOX-1 expression [16] is given as “inhibited the expression of lectin-like oxLDL receptor-1 (LOX-1)” and the “inhibition of inflammatory cytokines (interleukin-1, interleukin-6, interleukin-8, TNF-alpha)” value [17] is given as “inhibit inflammatory cytokines associated with ARDS”. For the same molecule, the “number of TUNEL-positive cells in the endothelium of atherosclerotic plaque” value [18] was “strongly decreased the number of TUNEL-positive cells”, the “protection against oxLDL-induced cell shrinkage, chromatin condensation, nuclear fragmentation, apoptosis” value [19] was “protected against such injuries” and the NK cell activity [20] was “increased NK cell activity”. For the same molecule, the interferon gamma production [20] was “increased”, the “TNF-alpha induced Tissue Factor expression (mean fluorescent intensity)” value [3] was “reduction of TNF-alpha induced Tissue Factor expression” and the “TNF-alpha induced Tissue Factor expression (mean fluorescent intensity)” value ([3]; listed as Pterostilbene) was “reduces inflammation induced tissue factor expression”.

From US20220143123A1, “Prevention of Pathological Coagulation in COVID-19 and other Inflammatory Conditions” (priority 2020, published 2022)
